From patent US20130023491A1, “BETA-CELL REPLICATION PROMOTING COMPOUNDS AND METHODS OF THEIR USE” (President and Fellows of Harvard College, priority 2009, published 2013)

Test system: β-cells
Assay: β-cell replication by phosphohistone-H3 (PH3) and PDX-1 co-expression
Assay type: cell-based, rat
Conditions: A10 2 μM, B8 15 μM
Method: Rat islets were isolated as previously described in Gotoh M, Maki T, Kiyoizumi T, Satomi S, Monaco A P: An improved method for isolation of mouse pancreatic islets. Transplantation 40:437-438, 1985, contents of which are herein incorporated by reference in their entirety. Isolated islets were cultured overnight in a tissue culture incubator. The following morning, islets were trypsinized into cellular clusters of 1-3 cells, re-suspended in islet media (Mediatech 99-786-CV; 10% FBS serum (Valley Biomedial BS3033); 8.3 mM Glucose (Sigma G7528); 1× Penicillin/Streptomycin (Invitrogen 15070-063); 1× Glutamax (Invitrogen 35050-079)) and plated into the wells of a 96-well plate (Sigma CLS3904) that had been coated with 804G (a rat bladder carcinoma cell line) conditioned media. The cellular plating density was 60 k cells/well and greater than 95% viability was confirmed at the time of plating. The islet cells were allowed 48-hours to adhere at which time the media was changed (Mediatech 99-786-CV 2% serum, 5 mM glucose, 1× pen/strep, 1× glutamax) and the cells were treated with the test compounds. For screening, compounds were tested at 1 uM concentration in duplicate. After 24-hours of compound treatment, cells were fixed with fresh 4% PFA (Electron Microscopy Services 15710) for 20 minutes and washed with PBS (VWR 45000-446). […]

## Nc1ncnc2c1c(I)cn2[C@@H]1O[C@H](CO)[C@@H](O)[C@H]1O [A10, 5-iodotubercidin]
  ratio of PH3 over PDX-1 relative to control DMSO treatment: increased
